Results on one compound are retold here after patent US7456292B2, “Hydroxamic acid-containing amino acid derivatives” (Bexel Pharmaceuticals, Inc., priority 2005, dated 2008).

Read-outs that look alike come from different tables or passages of the source. Where only a bound is given, the exact number is not on record here.

In experiment [1] the test system is TNF-α. Kind of experiment: LPS induced TNF-α in THP-1 monocytic cells. Type of experiment: cell-based. As to conditions: Homo sapiens, LPS 1 μg/mL 24 hours. As to the method: Human THP-1 monocyte cells were cultured and incubated with compounds at different concentrations. Cells were then challenged with lipopolysaccharides (LPS) at a concentration of (1 μg/mL) for 24 hours. Cell supernatants were then analyzed for the presence of TNF-α cytokines by antibody directed enzyme-linked immunoassay from R & D System, Minneapolis, USA.

A further experiment relates to IL-1β. Kind of experiment: LPS induced IL-1β in hPBMC. As to conditions: Homo sapiens, LPS 1 μg/mL 24 hours. Type of experiment: cell-based. As to the method:
(§1) Human PBMC monocyte cells were cultured and incubated with compounds at different concentrations. Cells were then challenged with lipopolysaccharides (LPS) at a concentration of (1 μg/mL) for 24 hours. Cell supernatants were then analyzed for the presence of TNF-α, IL-6 and IL-1β cytokines by antibody directed enzyme-linked immunoassay. Dexamethasone was used as a positive control in the experiments.

Experiment [2] has as its system IL-6. Briefly: LPS induced IL-6 in hPBMC. The experiment is classed as cell-based. As to conditions: Homo sapiens, LPS 1 μg/mL 24 hours. As to the method:
as §1

Experiment [3] has as its system TNF-α. Briefly: LPS induced TNF-α in hPBMC. As to conditions: Homo sapiens; hPBMC, 10 μM, LPS 1 μg/mL 24 hours; * average of two experiments; read-out: Inhibition (%) TNF-α. Type of experiment: cell-based. On the procedure: as §1
Experiment [4] has as its system TNF-α. Briefly: LPS induced sepsis model in mice, serum TNF-α. The experiment is classed as in vivo. As to conditions: Mus musculus; SW mice, oral 50 mg/kg body weight one hour before LPS, serum after 90 min. On the procedure: (§2) SW mice were orally treated with vehicle, dexamethasone (5 mg/kg) and compounds at a dose of 50 mg/kg body weight one hour before LPS injection (10 μg/mouse, ip) and blood was collected after 90 min and measured serum TNF-α and IL-6 levels by ELISA.

Experiment [5] concerns IL-6. Kind of experiment: LPS induced sepsis model in mice, serum IL-6. Type of experiment: in vivo. As to conditions: Mus musculus; SW mice, oral 50 mg/kg body weight one hour before LPS, serum after 90 min. On the procedure:
as §2

Another experiment deals with T1, Human recombinant TACE (Homo sapiens, UniProt P78536).
T1 construct: purchased R&D System 930-ADB; host or cells: Sf21 cells
T1 sequence (P78536 215-671 limits assumed): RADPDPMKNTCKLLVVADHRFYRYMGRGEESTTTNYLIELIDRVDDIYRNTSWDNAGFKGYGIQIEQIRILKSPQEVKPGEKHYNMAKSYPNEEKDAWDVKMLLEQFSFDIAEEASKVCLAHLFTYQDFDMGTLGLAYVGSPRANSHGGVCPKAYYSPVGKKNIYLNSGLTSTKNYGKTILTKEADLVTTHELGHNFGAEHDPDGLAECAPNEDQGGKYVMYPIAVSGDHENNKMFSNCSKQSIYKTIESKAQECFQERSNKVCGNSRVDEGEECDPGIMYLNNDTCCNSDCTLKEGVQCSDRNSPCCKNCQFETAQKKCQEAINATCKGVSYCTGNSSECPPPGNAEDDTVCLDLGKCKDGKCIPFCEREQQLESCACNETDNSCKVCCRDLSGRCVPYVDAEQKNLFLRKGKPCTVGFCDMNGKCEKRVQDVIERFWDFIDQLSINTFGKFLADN
Briefly: TACE enzyme inhibition. The experiment is classed as biochemical. The text has this:
Tumor necrosis factor-α converting enzyme (TACE/ADAM-17) is responsible for the release of TNF-α, a potent proinflammatory cytokine associated with many chronic debilitating diseases such as rheumatoid arthritis and multiple sclerosis. TNF-α also induces angiogenesis, promotes fibroblast proliferation and can combine with receptors on selected tumor cells to induce cell lysis. TACE is also implicated in amyloid precursor protein secretion. Human recombinant TACE expressed in Sf21 cells (R&D System, 930-ADB) is used. Test compound and/or vehicle is incubated with the enzyme (25 ng/ml) and 10 μM Mca-P-L-A-Q-A-V-Dpa-R-S-S-S-R-NH2 (SEQ. ID NO. 3) in Modified Tris-buffer pH 9.0 for 30 minutes at 25° C. Enzyme activity is determined spectrofluorimetrically by measuring the formation of fluorescent Mca-P-L-A-Q-A-NH2 (SEQ. ID NO. 4). Compounds are screened at 10 μM.

In a further experiment the target is T2, MMP-1 (Homo sapiens, UniProt P03956).
T2 construct: purchased Calbiochem 444208; host or cells: human rheumatoid synovial fibroblast (natural source)
T2 sequence (P03956 100-469): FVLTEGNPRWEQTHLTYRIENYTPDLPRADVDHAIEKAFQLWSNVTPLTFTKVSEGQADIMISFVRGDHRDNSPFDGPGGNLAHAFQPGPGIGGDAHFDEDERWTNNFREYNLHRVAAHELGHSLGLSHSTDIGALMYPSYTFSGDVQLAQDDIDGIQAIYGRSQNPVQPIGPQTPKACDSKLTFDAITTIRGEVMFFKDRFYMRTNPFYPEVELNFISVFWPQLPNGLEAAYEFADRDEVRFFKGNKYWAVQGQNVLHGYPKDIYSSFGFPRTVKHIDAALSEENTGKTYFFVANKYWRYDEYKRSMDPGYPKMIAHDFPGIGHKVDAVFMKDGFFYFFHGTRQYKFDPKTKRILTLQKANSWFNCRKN
Kind of experiment: MMP-1 enzyme inhibition. The experiment is classed as biochemical. As to the method:
The enzyme MMP-1 (interstitial collagenase; EC 3.4.24.7, human rheumatoid synovial fibroblast, Calbiochem Cat. 444208) is used. MMP-1 is first activated with APMA for 60 minutes at 37° C. Test compound and/or vehicle is then preincubated for 60 minutes at 37° C. with the active enzyme ([…]) in a reaction mixture containing 50 mM MOPS (pH 7.2), 10 mM CaCl2 and 10 μM ZnCl2. The reaction is initiated by addition of Mca-Pro-Leu-Gly-Leu-Dpa-Ala-Arg-NH2 (SEQ. ID NO. 1) (4 μM) and incubated for 120 minutes at 37° C. The N-terminal protecting group Mca is 7-methoxycoumarin-4-yl acetyl. The amino acid Dpa is N^3-(2,4-dinitrophenyl)-L-diaminopropanoyl. Enzyme activity is determined spectrofluorometrically by measuring the formation of fluorescent Mca-Pro-Leu-Gly (SEQ. ID NO. 2). Compounds are screened at 10 μM.

The target of another experiment is T3, MMP-9 (Homo sapiens, UniProt P14780).
T3 construct: purchased Calbiochem PF024-5UG
T3 sequence (P14780 107-707 limits assumed): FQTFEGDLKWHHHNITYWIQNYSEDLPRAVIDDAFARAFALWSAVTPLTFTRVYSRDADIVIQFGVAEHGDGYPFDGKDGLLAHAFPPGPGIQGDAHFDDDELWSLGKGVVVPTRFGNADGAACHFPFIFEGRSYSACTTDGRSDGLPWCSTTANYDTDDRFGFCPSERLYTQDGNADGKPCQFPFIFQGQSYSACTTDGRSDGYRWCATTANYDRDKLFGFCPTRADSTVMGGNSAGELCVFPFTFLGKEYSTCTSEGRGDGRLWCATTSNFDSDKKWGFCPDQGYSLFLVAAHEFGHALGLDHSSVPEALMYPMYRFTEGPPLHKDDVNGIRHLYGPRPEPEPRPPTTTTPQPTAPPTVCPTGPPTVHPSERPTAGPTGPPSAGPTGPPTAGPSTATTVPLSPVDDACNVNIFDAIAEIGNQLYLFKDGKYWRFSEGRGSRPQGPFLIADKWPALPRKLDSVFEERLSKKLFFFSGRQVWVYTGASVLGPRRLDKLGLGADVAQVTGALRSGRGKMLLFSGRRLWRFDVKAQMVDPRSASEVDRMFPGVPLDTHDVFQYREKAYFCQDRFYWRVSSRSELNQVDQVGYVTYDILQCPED
Briefly: MMP-9 enzyme inhibition. Type of experiment: biochemical. On the procedure:
The enzyme MMP-9 (gelatinase B; EC 3.4.24.35, human recombinant, Calbiochem Cat. PF024-5UG) is used. MMP-9 is first activated with APMA for 60 minutes at 37° C. Test compound and/or vehicle is then preincubated for 60 minutes at 37° C. with the active enzyme (11 nM) in a reaction mixture containing 50 mM MOPS (pH 7.2), 10 mM CaCl2 and 10 μM ZnCl2. The reaction is initiated by addition of 4 μM Mca-Pro-Leu-Gly-Leu-Dpa-Ala-Arg-NH2 (SEQ. ID NO. 1) and incubated for 120 minutes at 37° C. Enzyme activity is determined spectrofluorometrically by measuring the formation of fluorescent Mca-Pro-Leu-Gly (SEQ. ID NO. 2). Compounds are screened at 10 μM.

Experiment [6] addresses T4, Phosphodiesterase type-3 (PDE3) (Homo sapiens, UniProt Q14432).
T4 construct: from tissue; host or cells: human platelets
Kind of experiment: PDE-3 enzyme inhibition. Type of experiment: biochemical.

For experiment [7], the system named is Phosphodiesterase type 4 (PDE4). Briefly: PDE-4 enzyme inhibition. Type of experiment: biochemical, human.
Experiment [8] deals with TNF-α. Briefly: TNF-α secretion following LPS stimulation of mouse spleenic macrophages. Type of experiment: cell-based. Conditions: Macrophage, LPS stimulated mouse spleenic macrophages, read-out: Mice Spleen Cells (% Inhibition) TNF-α.
The next experiment relates to nitric oxide. Briefly: Nitric oxide secretion following LPS stimulation of mouse spleenic macrophages. The experiment is classed as cell-based. As to conditions: Macrophage, LPS stimulated mouse spleenic macrophages, read-out: Mice Spleen Cells (% Inhibition) NO.
Another experiment deals with IL-12. Kind of experiment: IL-12 secretion following LPS stimulation of mouse spleenic macrophages. Type of experiment: cell-based. The text has this: Compound 6 of this class inhibited IL-12 production in mouse splenic macrophages stimulated with LPS for 72 hrs.
The subject of the next experiment is T cell proliferation. Briefly: Inhibition of T cell proliferation. The experiment is classed as cell-based, mice. Conditions: Mus musculus, T-cell, 10 μM. As to the method:
SJL mice were immunized with keyhole limpet hemocyanin (KLH) in complete Freund's adjuvant (CFA). 12 days later regional lymph nodes were isolated and a proliferative response to KLH in the presence or absence of drug was performed (in presence of 3H thymidine). The results are expressed at Stimulation index (CPM+antigen/CPM no antigen). Similarly, mitogen induced concanavalin A (CON-A), IL-4, IL-2 induced T cell proliferation was measured in presence of compounds are shown in Table VI.

Experiment [9] has as its system Collagen Induced Arthritis Model. Briefly: Collagen induced arthritis model. Type of experiment: in vivo. Conditions: male DBA/1 Lac mice, oral 50 mg/kg daily. On the procedure:
Arthritis induced in male DBA/1 Lac mice with bovine collagen (100 μg/mouse). Booster dose was given on Day 21 and started treatment when clinical score was about 2. […] Dexamethasone was kept as positive control. Severity of each paw score was defined from 0=no erythma to 4=severe arthritis for the swollen paws with a maximum possible score of 16 for 4 paws (4×4) in one animal.

T4 sequence (Q14432 whole entry): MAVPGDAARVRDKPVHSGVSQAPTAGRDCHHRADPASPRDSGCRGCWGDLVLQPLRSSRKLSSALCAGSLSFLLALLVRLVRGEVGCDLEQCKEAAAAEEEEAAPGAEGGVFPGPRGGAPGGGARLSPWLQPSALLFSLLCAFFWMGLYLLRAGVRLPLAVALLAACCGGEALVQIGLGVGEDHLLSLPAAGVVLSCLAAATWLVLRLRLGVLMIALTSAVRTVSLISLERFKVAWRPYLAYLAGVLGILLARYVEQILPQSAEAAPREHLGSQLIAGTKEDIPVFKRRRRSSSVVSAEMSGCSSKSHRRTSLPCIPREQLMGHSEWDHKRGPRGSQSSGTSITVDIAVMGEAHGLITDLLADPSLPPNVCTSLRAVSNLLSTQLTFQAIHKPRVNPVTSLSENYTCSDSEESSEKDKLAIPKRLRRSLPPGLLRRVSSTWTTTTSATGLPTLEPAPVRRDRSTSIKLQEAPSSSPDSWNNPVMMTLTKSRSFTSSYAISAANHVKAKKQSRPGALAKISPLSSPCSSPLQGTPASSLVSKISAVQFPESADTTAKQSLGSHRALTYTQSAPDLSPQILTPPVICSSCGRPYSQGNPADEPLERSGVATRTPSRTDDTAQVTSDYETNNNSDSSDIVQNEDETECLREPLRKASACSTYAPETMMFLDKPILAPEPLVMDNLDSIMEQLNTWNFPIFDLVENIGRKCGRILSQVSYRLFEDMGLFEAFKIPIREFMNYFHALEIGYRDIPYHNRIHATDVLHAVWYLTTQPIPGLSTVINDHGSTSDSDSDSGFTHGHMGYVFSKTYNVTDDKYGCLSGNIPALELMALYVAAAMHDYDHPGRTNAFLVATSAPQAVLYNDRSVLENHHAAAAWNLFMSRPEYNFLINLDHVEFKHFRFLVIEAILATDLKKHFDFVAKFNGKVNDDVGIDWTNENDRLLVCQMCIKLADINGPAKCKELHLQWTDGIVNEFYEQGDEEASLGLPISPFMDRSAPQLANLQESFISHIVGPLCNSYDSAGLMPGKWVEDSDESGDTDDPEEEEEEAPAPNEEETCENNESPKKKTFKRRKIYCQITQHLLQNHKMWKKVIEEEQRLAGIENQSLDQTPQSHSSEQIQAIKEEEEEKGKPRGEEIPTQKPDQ

Broadly, the Inhibition is the percentage by which the read-out fell short of the control. Low readings indicate a response near the control, high ones a response far below the control. Consider `Cl.NC(Cc1ccc(Oc2ccc(C(=O)NO)cc2)cc1)C(=O)OCc1ccccc1` (stereo not drawn) [Compound 6, 2-amino-3-[4-(4-hydroxycarbamoylphenoxy)-phenyl]-propionic acid benzyl ester hydrochloric acid salt], for which the inhibition at 10 µM in the experiment on TNF-α [1] came to 92%; in the experiment on IL-1β, 73%; in the experiment with IL-6 [2] it was 97%; in the experiment on TNF-α [3], 69.6%; on Human recombinant TACE, 15%; against MMP-1, 12%. Besides, the inhibition at 10 µM on MMP-9 is less than 0%; in [6] it was 3%; with TNF-α [8], 20%; in the experiment with nitric oxide it was 20%; in the experiment on IL-12 (Macrophage, LPS stimulated mouse spleenic macrophages, 10 μM, read-out: Mice Spleen Cells (% Inhibition) IL-12), 80%; with T cell proliferation (Anti CD3 Abs induced, read-out: Inhibition of T cell proliferation, Anti CD3 Abs), less than 80%. Also, the inhibition at 10 µM in the experiment on T cell proliferation (CON A induced, read-out: Inhibition of T cell proliferation, CON A) is 61 to 80%; in the experiment on T cell proliferation (IL-2 induced, read-out: Inhibition of T cell proliferation, IL-2), 61 to 80%; in the experiment on T cell proliferation (IL-4 induced, read-out: Inhibition of T cell proliferation, IL-4), 61 to 80%; in the experiment with T cell proliferation (KLH specific, lymph nodes of KLH immunized SJL mice, read-out: Inhibition of T cell proliferation, KLH Specific) it was less than 80%. The inhibition at 50 mg/kg turned out to be 50% in the experiment with TNF-α [4] and 30% in the experiment with IL-6 [5]. Moreover, the “Inhibition at 10 μM (%) PDE-4” value in experiment [7] worked out at 4%. Besides, in the experiment on IL-12 (mouse splenic macrophages stimulated with LPS for 72 hrs), the IL-12 production entry is reported as “strongly inhibited IL-12 production”. Further, the arthritic scores entry in experiment [9] was “significantly improved the arthritic scores”.
